# Tests used:
# HEK293-MDR1 = assay: Antiproliferative MTT assay; assay type: cell-based, human; settings: 30 μM pure natural product, 72 h
# Procedure: For the determination of the antiproliferative properties of the prepared extract and selected alkaloids (isopteropodine, mitraphylline, and uncarine D), an MTT assay was applied on our HEK293 cell panel (see Table S4). […] All were maintained in a minimal essential medium completed with 10% fetal bovine serum, 1% non-essential amino acids, and 1% penicillin–streptomycin at 37 °C in a humidified atmosphere containing 5% CO2. All cell lines were purchased from the European Collection of Cell Cultures (Salisbury, UK), except for SiHa and C33A, which were from the American Tissue Culture Collection, LGC Standards GmbH (Wesel, Germany). Cell culture media and supplements were obtained from Lonza Group Ltd. (Basel, Switzerland). Cells were seeded into 96-well plates (C33A 10,000/well, all others 5000/well); after overnight incubation, the test substances were added and incubated for another 72 h under cell-culturing conditions. Uncaria tomentosa extract and the alkaloids were tested in the 1–90 μg/mL and 1–30 μM ranges, respectively. Finally, 20 μL of 5 mg/mL MTT solution was added to each well and incubated for 4 h; the medium was discarded, and the precipitated formazan crystals were dissolved in DMSO for 60 min with shaking. The absorbance was determined using a microplate reader (SPECTROstar Nano, BMG Labtech GmbH). […]
# A2780 = assay: Antiproliferative MTT assay; assay type: cell-based, human; settings: 30 μM pure natural product, 72 h
# Procedure: (§1) For the determination of the antiproliferative properties of the prepared extract and selected alkaloids (isopteropodine, mitraphylline, and uncarine D), an MTT assay was applied on our […] cell panel (see Table S4). […] All were maintained in a minimal essential medium completed with 10% fetal bovine serum, 1% non-essential amino acids, and 1% penicillin–streptomycin at 37 °C in a humidified atmosphere containing 5% CO2. All cell lines were purchased from the European Collection of Cell Cultures (Salisbury, UK), except for SiHa and C33A, which were from the American Tissue Culture Collection, LGC Standards GmbH (Wesel, Germany). Cell culture media and supplements were obtained from Lonza Group Ltd. (Basel, Switzerland). Cells were seeded into 96-well plates (C33A 10,000/well, all others 5000/well); after overnight incubation, the test substances were added and incubated for another 72 h under cell-culturing conditions. Uncaria tomentosa extract and the alkaloids were tested in the 1–90 μg/mL and 1–30 μM ranges, respectively. Finally, 20 μL of 5 mg/mL MTT solution was added to each well and incubated for 4 h; the medium was discarded, and the precipitated formazan crystals were dissolved in DMSO for 60 min with shaking. The absorbance was determined using a microplate reader (SPECTROstar Nano, BMG Labtech GmbH). Two independent experiments were performed with five parallels for each condition. Cisplatin, a clinically used anticancer agent (Ebewe GmbH, Unterach, Austria), was included as a reference compound. Calculations were conducted using the GraphPad Prism 10.0 software (GraphPad Software Inc., San Diego, CA, USA).
# (§2) Table S4 – Antiproliferative properties of Uncaria tomentosa extract, three natural products (isopteropodine, mitraphylline, and uncarine D) and the
# (§3) reference agent cisplatin.
# (§4) Cell line Uncaria tomentosa isopteropodine mitraphylline uncarine D [95% confidence
# (§5) 1: The highest applied concentration was 90 μg/mL and 30 μM for the extract and the pure natural products, respectively.
# (§6) 2: Inhibitions less than 20% compared to the untreated control were regarded as negligible and were not given numerically.
# C33A = assay: Antiproliferative MTT assay; assay type: cell-based, human; settings: 30 μM pure natural product, 72 h
# Procedure: as §1, §2, §3, §4, §5, §6
# HEK293-Mock-B = assay: Antiproliferative MTT assay; assay type: cell-based, human; settings: 30 μM pure natural product, 72 h
# Procedure: as §1, §2, §3, §4, §5, §6
# HEK293-Mock = assay: Antiproliferative MTT assay; assay type: cell-based, human; settings: 30 μM pure natural product, 72 h
# Procedure: as §1, §2, §3, §4, §5, §6
# HeLa = assay: Antiproliferative MTT assay; assay type: cell-based, human; settings: 30 μM pure natural product, 72 h
# Procedure: as §1, §2, §3, §4, §5, §6
# MCF7 = assay: Antiproliferative MTT assay; assay type: cell-based, human; settings: 30 μM pure natural product, 72 h
# Procedure: as §1, §2, §3, §4, §5, §6
# MDA-MB-231 = assay: Antiproliferative MTT assay; assay type: cell-based, human; settings: 30 μM pure natural product, 72 h
# Procedure: as §1, §2, §3, §4, §5, §6
# SiHa = assay: Antiproliferative MTT assay; assay type: cell-based, human; settings: 30 μM pure natural product, 72 h
# Procedure: as §1, §2, §3, §4, §5, §6
# T47D = assay: Antiproliferative MTT assay; assay type: cell-based, human; settings: 30 μM pure natural product, 72 h
# Procedure: as §1, §2, §3, §4, §5, §6
# NIH/3T3 = assay: Antiproliferative MTT assay; assay type: cell-based, murine; settings: 30 μM pure natural product, 72 h
# Procedure: as §1, §2, §3, §4, §5, §6
# [1] = system: pregnane X receptor (PXR); settings: cited from earlier work
# MDR1 = settings: MDR1-overexpressing MDCKII cells and Caco-2 cells; cited from earlier work
SMILES,Cell growth inhibition at the highest concentration (% ± SEM) (HEK293-MDR1),Cell growth inhibition at the highest concentration (% ± SEM) (A2780),Cell growth inhibition at the highest concentration (% ± SEM) (C33A),Cell growth inhibition at the highest concentration (% ± SEM) (HEK293-Mock-B),Cell growth inhibition at the highest concentration (% ± SEM) (HEK293-Mock),Cell growth inhibition at the highest concentration (% ± SEM) (HeLa),Cell growth inhibition at the highest concentration (% ± SEM) (MCF7),Cell growth inhibition at the highest concentration (% ± SEM) (MDA-MB-231),Cell growth inhibition at the highest concentration (% ± SEM) (SiHa),Cell growth inhibition at the highest concentration (% ± SEM) (T47D),Cell growth inhibition at the highest concentration (% ± SEM) (NIH/3T3),PXR activation [1],MDR1 substrate status (MDR1)
COC(=O)C1=CO[C@@H](C)[C@H]2CN3CC[C@]4(C(=O)Nc5ccccc54)[C@@H]3C[C@H]12 [mitraphylline],< 20%,< 20%,< 20%,< 20%,< 20%,< 20%,< 20%,< 20%,26.22 ± 1.12%,< 20%,< 20%,PXR activators,MDR1 substrate
COC(=O)C1=CO[C@@H](C)[C@@H]2CN3CC[C@@]4(C(=O)Nc5ccccc54)[C@@H]3C[C@H]12 [isopteropodine],< 20%,< 20%,< 20%,< 20%,< 20%,< 20%,< 20%,< 20%,27.38 ± 2.72%,< 20%,< 20%,PXR activators,
